14 compounds from PubChem BioAssay (NCI) can be followed below.

Experiment in all cases: NCI-60 cell line screen, 48 h
The subject of assay [1] is CCRF-CEM leukemia.
Assay [2] deals with COLO 205 colon.
Assay [3] has as its system MOLT-4 leukemia.
The subject of assay [4] is NCI-H23 lung.
Assay [5] deals with NCI-H460 lung.
Assay [6] relates to SF-268 CNS.
Assay [7] concerns SNB-19 CNS.
In assay [8] the test system is SW-620 colon.
Assay [9] has as its system DU-145 prostate.
Assay [10] relates to NCI/ADR-RES ovarian.

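Test compounds were applied to cells in 96-well plates for 48 hours at 5 doses. GI50 = concentration required for 50% inhibition of growth. The concentration for full growth arrest is given as TGI.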

For `CC1CCP(=O)(c2ccccc2)CC1` (stereo not drawn), the TGI in assay [1], in assay [2], in [3], in [4], in [5] and in assay [6] was greater than 100 µM each time. Further, the TGI in assay [7] and in assay [8] was greater than 100 µM throughout.
As to `NC(=S)N/N=C\c1nccc2c(N)cccc12`, the GI50 in [2] was 1.09 µM; in assay [9], 0.278 µM; in assay [3], 0.235 µM; in assay [4], 0.224 µM; in [5], 0.303 µM; in assay [10], 0.375 µM. For the same compound, the values for the GI50 in assay [6], in assay [7] and in assay [8] were 0.242 µM, 0.557 µM and 0.476 µM, respectively. Also, the TGI in assay [2] is greater than 100 µM; in assay [9], 2.38 µM; in [3], greater than 100 µM; in [4] it was greater than 94.8 µM; in assay [5], 2.04 µM; in [10], 17.3 µM. Besides, the TGI in [7] and in assay [8] was greater than 100 µM each time.
For `O=[N+]([O-])c1ccc(/C=C(/c2ccc([N+](=O)[O-])o2)S(=O)(=O)c2ccccc2)o1`, the TGI in assay [2] came out at 4.67 µM; in assay [9], 28 µM; in assay [4], 38 µM; in assay [5] it was 60.1 µM; in [10], 39.1 µM; in assay [6], 32.4 µM. Moreover, the values for the TGI in assay [7] and in assay [8] were 35.7 µM and 5.55 µM, respectively.
For the compound `CC1(C)CC(=O)C(=[N+]=[N-])C(=O)C1`, the TGI in assay [1], in assay [2], in assay [4], in assay [6], in assay [7] and in [8] was greater than 100 µM throughout.
As to `COc1cc(Cl)c2c3c(c(C(=O)c4ccccc4)oc13)CCC2`, the TGI in assay [1], in assay [2], in assay [3], in [4], in assay [5] and in assay [7] was greater than 100 µM in each case. The compound also came in with a TGI in assay [8] greater than 100 µM.
As to `Cc1cc(C)c2c(SCc3ccc(Cl)cc3Cl)nc(N)nc2n1`, the TGI in [1] was greater than 100 µM; in [2], greater than 100 µM; in [9] it was greater than 100 µM; in assay [4], greater than 100 µM; in assay [5] it was 67.5 µM; in assay [10], greater than 100 µM. The TGI in assay [6], in [7] and in assay [8] was greater than 100 µM throughout.
With `CC(=O)c1cc2c(c3ccsc13)-c1ccccc1CC2`, the GI50 in [1] is 21.7 µM; in assay [2], 42 µM; in assay [9], 23.5 µM; in assay [4], 28.1 µM; in assay [5], 30.1 µM; in [10], 16.6 µM. The GI50 in [6] is 43.4 µM; in [7] it was greater than 100 µM; in assay [8] it was 33.7 µM. Moreover, the TGI in assay [1] was 62.1 µM; in assay [2] it was greater than 100 µM; in assay [9], greater than 100 µM; in assay [4], 95.6 µM; in assay [5] it was greater than 100 µM; in [10], 44.8 µM. The TGI in assay [6], in [7] and in assay [8] was greater than 100 µM in each case.
As for `O=c1c2ccccc2nc(-c2ccccc2)n1O`, the TGI in [1], in assay [2], in assay [9], in assay [4], in assay [5] and in assay [10] was greater than 100 µM throughout. Further, the TGI in assay [6], in [7] and in assay [8] was greater than 100 µM throughout.
Consider `Cc1ccc(NC(=O)C2C(=O)N(c3ccc(C)c(C)c3)C(=O)/C2=N\NC(N)=S)cc1C` (stereo not drawn), for which the TGI in assay [1], in assay [3], in assay [4], in [6], in assay [7] and in assay [8] was greater than 100 µM each time.
Consider `Cn1c2ccccc2c(=O)c2c([N+](=O)[O-])ccc(NCCN)c21`, for which the TGI in [2] worked out at 19.3 µM; in assay [3], 7.95 µM; in assay [4], 23.6 µM; in assay [5], 22.8 µM; in [6], 26 µM; in [7], 27.8 µM. Moreover, the TGI in assay [8] is 16.6 µM.
As to `CC(O)(CNS(=O)(=O)c1ccccc1)c1ccccc1` (stereo not drawn), the TGI in assay [1], in assay [2], in [9], in assay [4], in assay [5] and in assay [10] was greater than 100 µM throughout. Also, the TGI in assay [6], in assay [7] and in assay [8] was greater than 100 µM each time.
Take `BrC1=CC=C2NCCCCCCN=C3C=CC(Br)=CC=C3NCCCCCCN=C2C=C1`: the TGI in assay [1], in [3], in assay [4], in assay [5], in [6] and in [7] was greater than 25.5 µM throughout. For the same compound, the TGI in assay [8] is greater than 25.5 µM.
For the compound `COC1C(O)C(C)OC(OC2CC3CCC4C(CCC5(C)C(C6=CC(=O)OC6)CCC45O)C3(O)C(OC(C)=O)C2)C1O` (stereo not drawn), the TGI is greater than 100 µM in assay [1]; 8.48 µM in assay [2]; 1.65 µM in [9]; 2.61 µM in assay [4]; 2.74 µM in assay [5]; 6.32 µM in [10]. Also, the figures for the TGI in assay [6], in assay [7] and in assay [8] were 2.54 µM, 14.9 µM and greater than 36.7 µM, respectively.
With `CCCCCC(O)(CCCCC)CCCCCCCCC1=C(O)c2[nH]c(=O)ccc2C(=O)C1=O`, the TGI stood at 48.1 µM in [1]; 31.9 µM in assay [2]; 55.5 µM in [3]; 7.73 µM in assay [4]; 24 µM in assay [5]; 19.1 µM in assay [6]. Also, the figures for the TGI in [7] and in assay [8] were 18.2 µM and 20.6 µM, respectively.
